“Also recorded” adds a separate entry of the source.
Columns and labels:
[1] = system: MG-63 osteoblasts; assay: Collagen-I immunofluorescence in MG-63 osteoblasts treated with ML228; format: cell-based, human
Method: (§1) MG-63 human osteosarcoma cell lines were obtained from the American Type Culture Collection (ATCC, Manassas, VA, USA). Cells were cultured in α-MEM supplemented with 10% FCS, 100 U/ml penicillin, and […] streptomycin at 37° C. in a humidified atmosphere incubator containing 5% CO2. Before treatment with ML228, 5,000 and 50,000 cells/well were seeded in a 96 or 24 well-plate, respectively.
Cells were cultured to sub-confluence on a 96-well plate culture plate or on round-glass cover slips in a 24 well plate and incubated with ML228 at 37° C. in 5% CO2 for 24-96 hours. […] Fluorescence readouts were obtained with excitation/emission (ex/em) of 495/519 nanometer (nm; green) and 340/488 nm (blue) (for FIGS. 2B and 2D); or with ex/em of 358/461 nm (blue), 495/519 nm (green) and 652/668 nm (red) (for FIG. 5A).
All images were analyzed with the computer-based image analysis system (Image J) using the Fiji 2 software (National Institute of Health). Equal field areas were selected for analysis and quantification of fluorescence signals. Quantification of fluorescence signal intensity measured by color threshold and normalized against β-tubulin intensity. Total collagen was evaluated by total fluorescence area intensity.
The effect of ML228 (chemical structure thereof is depicted in FIG. 1), a known activator of HIF, on fibroblasts and osteoblasts was analyzed. […]

[2] = system: osteoblasts; assay: Cell-Titer assay of cellular ATP levels, osteoblasts; format: cell-based; conditions: 48 hours
Method: as §1
The live/dead viability assay (cat #04511-1KT-F Merck, Germany) was used according to the manufacturer's protocol. Briefly, cells were incubated in a medium supplemented with the indicated concentrations of ML228 for 48 hours. Fluorescein diacetate (6.6 μg/mL) and propidium iodide (5 μg/mL) (Merck, NJ, USA) were prepared in DMEM and added to the cells. Confocal images were captured after addition of the dyes with ZEISS LSM 900, Laser Scanning Microscope. Fluorescence readouts were obtained with ex/em of 490/515 nm and 535/617 nm for green and red, respectively. Cellular ATP levels were quantified using the cell-titer assay (Promega, WI, USA cat #G7570).

c1ccc(-c2ccc(CNc3nc(-c4ccccn4)nnc3-c3ccccc3)cc2)cc1 [ML228, N-([1,1′-Biphenyl]-4-ylmethyl)-6-phenyl-3-(2-pyridinyl)-1,2,4-triazin-5-amine]
concentration of maximum enhancement of Collagen-I ([1]; MG-63, 48 hours, normalized to cell number (DAPI), FIG. 9B): 5 µM | increase in collagen levels compared to non-treated cells ([1]; osteoblasts (MG-63), variable ML228 concentrations, 48 hours): more than a three-fold increase; also recorded: increased | IC50 ([2]; Homo sapiens, Osteoblast, read-out: IC50 (ATP levels relative to non-treated cells)): 567 nM | metabolically active cell viability as measured by ATP levels ([2]; increasing ML228 concentrations): decrease in metabolically active cell viability

Source: patent US20250171821A1, “HIF-1 ACTIVATORS AND USES THEREOF” (Ramot at Tel-Aviv University Ltd., priority 2022, published 2025)
